# Tests used:
# Type in all cases: in vivo
# [1] = test system: corn (Zea mays); assay: Test C; parameters: key: 0 was no effect; 100 was complete control; details: PREEMERGENCE
# [2] = test system: field bindweed (Convolvulus arvensis); assay: Test C; parameters: key: 0 was no effect; 100 was complete control; details: PREEMERGENCE
# [3] = test system: lambsquarters (Chenopodium album); assay: Test C; parameters: key: 0 was no effect; 100 was complete control; details: PREEMERGENCE
# [4] = test system: soybean (Glycine max); assay: Test C; parameters: key: 0 was no effect; 100 was complete control; details: PREEMERGENCE
# [5] = test system: common groundsel (Senecio vulgaris); assay: Test E pre-/postemergence/post directed; parameters: key: 0 is no injury; 100 is complete control; details: POSTEMERGENCE, Rate 32 g/ha
# How it was run: (§1)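 Injury was scored visually on a 0 to 100 scale (100 = complete control) 13 to 21 days after treatment of greenhouse-grown plants. Test chemicals, in a surfactant-containing non-phytotoxic solvent, were sprayed onto soil within a day of planting, onto plants at the two to four leaf stage, or directed at the base of the plants.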
# [6] = test system: barnyardgrass (Echinochloa crus-galli); assay: Test E pre-/postemergence/post directed; details: PREEMERGENCE
# How it was run: as §1
compound,measurement,setting,value
"Cc1cnc(-n2ccc(C(F)(F)F)n2)nc1Cc1cccc(C(F)(F)F)c1 [Example 2, 5-methyl-4-[[3-(trifluoromethyl)phenyl]methyl]-2-[3-(trifluoromethyl)-1H-pyrazol-1-yl]pyrimidine]","Plant response rating, Corn",[1]; Rate 35 g/ha,0
same,"Plant response rating, Corn",[1]; Rate 70 g/ha,0
same,"Plant response rating, Corn",[1]; Rate 140 g/ha,30
same,"Plant response rating, Field bindweed",[2]; Rate 35 g/ha,0
same,"Plant response rating, Field bindweed",[2]; Rate 70 g/ha,30
same,"Plant response rating, Field bindweed",[2]; Rate 140 g/ha,100
same,"Plant response rating, Lambsquarters",[3]; Rate 35 g/ha,0
same,"Plant response rating, Lambsquarters",[3]; Rate 140 g/ha,100
same,"Plant response rating, Soybean",[4]; Rate 35 g/ha,0
same,"Plant response rating, Soybean",[4]; Rate 70 g/ha,0
same,"Plant response rating, Soybean",[4]; Rate 140 g/ha,40
same,"Plant response rating, Com. groundsel",[5],0
same,"Plant response rating, Barnyardgrass",[6]; Rate 32 g/ha,20
same,"Plant response rating, Barnyardgrass",[6]; Rate 64 g/ha,95

# Reference: US6525001B1, “Substituted pyrimidine and pyridine herbicides” (Mid-American Commercialization Corporation, priority 1997, dated 2003)
